Source: patent publication US20110059953A1, “COMPOUNDS FOR USE IN STABILIZING P53 MUTANTS” (priority 2008, published 2011)
Each block holds one compound with its values, some of them ahead of it.

Assays:
[1] = molecular target: T1, T-p53C-Y220C (Homo sapiens, UniProt P04637, M133L/N239Y/N268D/V203A/Y220C); experiment: Thermal denaturation using capillary DSC; format: binding; settings: increase in Tm on adding 250 μM of the test compound; 20 μM protein
T1 construct: For all other experiments, the DNA coding for residues 94-312 of T-p53C was inserted into a modified pET24a(+) vector; 6xHis tag + B. stearothermophilus dihydrolipoyl acetyltransferase lipoyl domain (aa 1-85) + TEV site (N, cleaved yes); made in house; host or cells: Escherichia coli BL21 (DE3) or C41 (DE3)
Description: Differential Scanning calorimetry (DSC) was used to probe the stabilising effect of the ligands on […]. For a reversible two-state system, the melting temperature, Tm, is the transition temperature where the folded and unfolded states are equally populated.
DSC experiments were performed using a Microcal VP-Capillary DSC instrument (Microcal, Amherst, Mass.) with an active cell volume of ˜125 μl. Protein samples were buffer exchanged into 25 mM NaPi, pH 7.2, 150 mM NaCl, 5 mM DTT. This buffer + the respective concentration of ligand/DMSO was used for baseline scans, so that the only difference between sample and reference cell or sample cell in the measurement and both cells in the baseline scan is the presence of the protein. A final concentration of 20 μM T-p53C-Y220C was used. A pressure of 2.5 bars (nitrogen) was applied to the cell. Temperatures from 10 to 85° C. were scanned at a rate of 250° C./h, with a filtering period of 4 seconds and feedback gain/mode set at medium. Data were analysed with ORIGIN software (Microcal).
The following tables show the results of the thermal denaturation studies using capillary DSC, where ΔTm is the increase in Tm on adding 250 μM of the test compound. The Dunnett significance test (P) value given is the calculated probability that the change in Tm is insignificant.

[2] = molecular target: T1, T-p53C-Y220C; experiment: Thermal denaturation using fluorescence (Sypro Orange); format: binding; settings: 10 μM protein
Description: This was by an adaption of the classical procedure (e.g. ref A6). Thermal unfolding was monitored by the binding of the dye Sypro Orange (5×) using a Rotor-gene 6000 (Corbett Life Science) at 270 K/h in 25 mM NaPi, 150 mM NaCl and 5 mM DTT, pH 7.2 with a protein concentration of 10 μM.
(§1) Where listed, S.E. is the calculated standard error.
as §1

[3] = molecular target: T1, T-p53C-Y220C; experiment: 1H/15N-HSQC NMR chemical shift binding (KD NMR); settings: KD (@ 20° C.) μM, further NMR studies, some revised values
Description: Uniformly ^15N-labelled core domains of T-p53C-Y220C was expressed and purified according to the above described protocol. The low molecular-weight compounds were dissolved in d^6-DMSO to make 10 mM stock solutions. To screen compound mixtures by chemical shift mapping, 10 μl of each of 4 different compounds were mixed together and 25 μl of this mixture was added to 25 μl of D2O and 500 μl of 70 μM T-p53C-Y220C (in 25 mM NaPi, 150 mM NaCl and 5 mM DTT, pH 7.2 ). […] NMR samples were freshly prepared and kept sealed under argon after degassing by repeated cycles of pumping the NMR tube under low pressure (while gently tapping the tube) and returning to atmospheric pressure using a stream of argon gas. This was done to maintain sample stability.
Using Bruker's TopSpin 2.0 software, the number of complex points in t1 was doubled by forward complex linear prediction and shifted squared sine bell window functions were applied to both dimensions prior to zero filling and Fourier transformation. A digital resolution of 2.0 Hz/point in the ^1H frequency dimension and 4.7 Hz/point in the ^15N frequency dimension was used. […] An in-house script was used to analyse chemical shift differences and map these onto PDB protein structures.
For certain compounds an array of different concentrations were used to derive KD values (KD NMR) by fitting a saturation binding equation (Δδ=c+a*[L]/(KD+[L])) to the concentration-dependent chemical shift changes of the relevant shifting peaks.

[4] = molecular target: T1, T-p53C-Y220C; experiment: Melting temperature of T-p53C-Y220C, method not stated; format: binding
[5] = further studies on compounds described above

- ΔTm [1]: 0.42 °C
- ΔTm (° C.) [2, 5]: 0.42 °C
SMILES: CCn1c2ccccc2c2cc(NC(=O)CN3C(=O)NC(C)(c4ccc(OC)cc4)C3=O)ccc21 (stereo not shown) [PK160]

- ΔTm [1]: 0.52 °C
- ΔTm (° C.) [2, 5]: 0.54 °C
SMILES: CCn1c2ccccc2c2cc(CN3CCC(n4cc(C(=O)NCCO)nn4)CC3)ccc21 [PK221]

- ΔTm [1]: 0.23 °C
- ΔTm (° C.) [2, 5]: 0.23 °C
SMILES: CCN(CCN(C)C)Cc1ccc2c(c1)c1ccccc1n2CC [PK189]

- ΔTm [1]: 0.22 °C
- ΔTm (° C.) [2, 5]: 0.22 °C
SMILES: CCn1c2ccccc2c2cc(NC(=O)C(C)N3CCN(CC(N)=O)CC3)ccc21 (stereo not shown) [PK152]

- ΔTm [1]: 0.25 °C
- ΔTm (° C.) [2, 5]: 0.25 °C
SMILES: CCn1c2ccccc2c2cc(CN3CCNCC3)ccc21 [PK198]

- ΔTm [1]: 0.64 °C
- ΔTm (° C.) [2, 5]: 0.64 °C
SMILES: CCn1c2ccccc2c2cc(NC(=O)c3ccc(OCC(N)=O)cc3)ccc21 [PK166]

- ΔTm [1]: 0.63 °C
- ΔTm (° C.) [2, 5]: 0.63 °C
SMILES: CCn1c2ccccc2c2cc(NC(C)C(=O)NC(N)=O)ccc21 (stereo not shown) [PK158]

- ΔTm [1]: 0.47 °C
- ΔTm (° C.) [2, 5]: 0.46 °C
SMILES: CCn1c2ccccc2c2cc(NC(=O)CN(CC(N)=O)C(C)C)ccc21 [PK161]

- ΔTm [1]: 1.11 °C
- ΔTm (° C.) [2, 5]: 1.0 °C
- Kd [3]: 113 µM
SMILES: CCn1c2ccccc2c2cc(C3CC4CN(C)C(=O)C45CCCN35)ccc21 (stereo not shown) [PK226]

- ΔTm [1]: 0.51 °C
- ΔTm (° C.) [2, 5]: 0.51 °C
SMILES: CCn1c2ccccc2c2cc(CN(C)C(=O)c3nccnc3N)ccc21 [PK164]

- ΔTm [1]: 0.64 °C
- ΔTm (° C.) [2, 5]: 0.68 °C
SMILES: CCn1c2ccccc2c2cc(CN3CCC4(CC3)CC4C(=O)NCCc3ccccn3)ccc21 (stereo not shown) [PK220]

- ΔTm [1]: 0.47 °C
- ΔTm (° C.) [2, 5]: 0.493 °C
SMILES: CCn1c2ccccc2c2cc(CN3CCN(C)C(CCO)C3)ccc21 (stereo not shown) [PK217]

- ΔTm [1]: 0.41 °C
- ΔTm (° C.) [2, 5]: 0.4 °C
SMILES: CCNC(=S)Nc1ccc2c(c1)c1ccccc1n2CC [PK168]

- ΔTm [1]: 0.58 °C
- ΔTm (° C.) [2, 5]: 0.58 °C
- Kd [3]: 120 µM
SMILES: CCn1c2ccccc2c2cc(CNCCO)ccc21 [PK211]

- ΔTm [1]: 0.53 °C
- ΔTm (° C.) [2, 5]: 0.55 °C
SMILES: CCn1c2ccccc2c2cc(CN3CCCC(N4CCOCC4)C3)ccc21 (stereo not shown) [PK225]

- ΔTm (° C.) ([2]; further compounds): 0.9 °C
- Kd [3]: 76 µM
SMILES: CCn1c2ccccc2c2cc(CNCCCn3ccnc3)ccc21 [PK214]

- ΔTm [1]: 0.4 °C
- ΔTm (° C.) [2, 5]: 0.4 °C
SMILES: CCn1c2ccccc2c2cc(CN3CCC(N4CCN(CCO)CC4)CC3)ccc21 [PK205]

- ΔTm [1]: 0.79 °C
- ΔTm (° C.) [2, 5]: 0.793 °C
- Kd [3]: 97 µM
SMILES: CCC(CO)NCc1ccc2c(c1)c1ccccc1n2CC (stereo not shown) [PK209]

- ΔTm [1]: 0.5 °C
- ΔTm (° C.) [2, 5]: 0.34 °C
SMILES: CCn1c2ccccc2c2cc(CN(C)C3CCN(C)CC3)ccc21 [PK178]

- ΔTm [1]: 0.38 °C
- ΔTm (° C.) [2, 5]: 0.40 °C
SMILES: Cc1ccc(CN2C[C@@H]3C[C@@H](C)N4CCC[C@@]34C2=O)o1 [PK223]

- ΔTm [1]: 0.57 °C
- ΔTm (° C.) [2, 5]: 0.57 °C
- Kd [3]: 200 µM
SMILES: CCn1c2ccccc2c2cc(CNCCN(C)C)ccc21 [PK207]

- ΔTm [1]: 0.85 °C
- ΔTm (° C.) [2, 5]: 0.873 °C
SMILES: CCn1c2ccccc2c2cc(CNCCCn3cc(C(=O)N4CCOCC4)nn3)ccc21 [PK219]

Continued, compound first:

SMILES: CCn1c2ccccc2c2cc(NC(=O)CCc3c(C)[nH]c(=O)c(C#N)c3C)ccc21 [PK141]
- ΔTm [1]: 0.48 °C
- ΔTm (° C.) [2, 5]: 0.48 °C

SMILES: CCn1c2ccccc2c2cc(CNCCc3c[nH]c4ccccc34)ccc21 [PK193]
- ΔTm [1]: 0.3 °C
- ΔTm (° C.) [2, 5]: 0.3 °C

SMILES: CCn1c2ccccc2c2cc(NC(=O)CN3C(=O)c4ccccc4S3(=O)=O)ccc21 [PK117]
- ΔTm [1]: 0.47 °C
- ΔTm (° C.) [2, 5]: 0.47 °C

SMILES: CCn1c2ccccc2c2cc(CN3CCC(N4CCCCC4)CC3)ccc21 [PK188]
- ΔTm [1]: 0.39 °C
- ΔTm (° C.) [2, 5]: 0.39 °C

SMILES: CCn1c2ccccc2c2cc(NC(=S)Nc3cc(S(=O)(=O)N(C)C)ccc3C)ccc21 [PK102]
- ΔTm [1]: 0.37 °C
- ΔTm (° C.) [2, 5]: 0.37 °C

SMILES: CCn1c2ccccc2c2cc(NC(=O)Cc3ccc(S(=O)(=O)N4CCOCC4)s3)ccc21 [PK115]
- ΔTm [1]: 0.49 °C
- ΔTm (° C.) [2, 5]: 0.49 °C

SMILES: CCn1c2ccccc2c2cc(NC(=O)COC(=O)c3ccc(NC(=O)CC#N)cc3)ccc21 [PK140]
- ΔTm [1]: 0.51 °C
- ΔTm (° C.) [2, 5]: 0.513 °C

SMILES: CCn1c2ccccc2c2cc(NC(=O)C(C)OC(=O)c3ccc([N+](=O)[O-])o3)ccc21 (stereo not shown) [PK119]
- ΔTm [1]: 0.48 °C
- ΔTm (° C.) [2, 5]: 0.48 °C

SMILES: CCn1c2ccccc2c2cc(NC(=O)COC(=O)c3ccc(-n4cnnn4)cc3)ccc21 [PK138]
- ΔTm [1]: 0.54 °C
- ΔTm (° C.) [2, 5]: 0.54 °C

SMILES: CCn1c2ccccc2c2cc(CN(C)C(=O)NC3CCS(=O)(=O)C3)ccc21 (stereo not shown) [PK148]
- ΔTm [1]: 0.23 °C
- ΔTm (° C.) [2, 5]: 0.225 °C

SMILES: CCn1c2ccccc2c2cc(NC(=O)C(C)OC(=O)c3ccc(-n4cnnn4)cc3)ccc21 (stereo not shown) [PK134]
- ΔTm [1]: 0.4 °C
- ΔTm (° C.) [2, 5]: 0.4 °C

SMILES: CCn1c2ccccc2c2cc(NC(=O)CN3C(=O)NC(C)(c4ccc(C)cc4)C3=O)ccc21 (stereo not shown) [PK110]
- ΔTm [1]: 0.37 °C
- ΔTm (° C.) [2, 5]: 0.37 °C

SMILES: COc1ccc(N2CCN(Cc3cc4c(cc3O)[nH]c3ccccc34)CC2)cc1 [PK144]
- ΔTm [1]: 0.51 °C
- ΔTm (° C.) [2, 5]: 0.51 °C

SMILES: CCn1c2ccccc2c2cc(NC(=O)CSc3nnc(N)s3)ccc21 [PK099]
- ΔTm [1]: 0.53 °C
- ΔTm (° C.) [2, 5]: 0.53 °C

SMILES: CCn1c2ccccc2c2cc(NC(=O)CSc3nccc(=O)[nH]3)ccc21 [PK095]
- ΔTm [1]: 0.39 °C

SMILES: CCn1c2ccccc2c2cc(NC(=O)COC(=O)Cn3cnc4c3c(=O)n(C)c(=O)n4C)ccc21 [PK114]
- ΔTm [1]: 0.39 °C
- ΔTm (° C.) [2, 5]: 0.39 °C

SMILES: CCn1c2ccccc2c2cc(NC(=O)C(C)Sc3nc(N)cc(=O)[nH]3)ccc21 (stereo not shown) [PK143]
- ΔTm [1]: 0.24 °C
- ΔTm (° C.) [2, 5]: 0.24 °C

SMILES: CCCN1CCN(C(C)C(=O)Nc2ccc3c(c2)c2ccccc2n3CC)CC1 (stereo not shown) [PK142]
- ΔTm [1]: 0.26 °C
- ΔTm (° C.) [2, 5]: 0.26 °C

SMILES: NC(=O)c1c[nH]c2ccccc12 [1H-indole-3-carboxamide]
- effect on melting temperature [4]: raise its melting temperature

SMILES: CCn1c2ccccc2c2cc(CNCCc3ccccc3)ccc21 [PK194]
- ΔTm [1]: 0.38 °C
- ΔTm (° C.) [2, 5]: 0.38 °C

SMILES: CCn1c2ccccc2c2cc(NC(=O)COC(=O)c3cc(C(=O)OC)cc([N+](=O)[O-])c3)ccc21 [PK137]
- ΔTm [1]: 0.29 °C
- ΔTm (° C.) [2, 5]: 0.3 °C
